# Patent US20020137676A1, “Selective treatment of endothelial somatostatin receptors” (priority 1998, published 2002)
# Ends that are not written are not given here.
# Columns and labels:
# Format in all cases: cell-based, human
# ECV304 or HUVEC cells = experiment: Actin cytoskeleton effects of SSTR selective ligands on endothelial cells
# Protocol: (§1) The cells were subsequently incubated at 37° C. for 30 min, fixed in 4% PFA for 5 min and washed in PBS. The actin cytoskeleton was visualized by incubating the cells with ALEXA-488 conjugated phalloidin (1:50, Molecular Probes Inc., Eugene, Oreg.) for 15 min at room temperature. Cells were screened using a Zeiss Axiophot microscope as previously described. Similar protocols were used to evaluate the effects SSTR1 selective ligands on endothelial cells.
# ECV304 cells [1] = experiment: ECV304/Matrigel in vitro angiogenesis model (capillary-like tube formation); conditions: sub-micromolar and higher concentrations; ECV304 on Matrigel
# Excerpt: In one aspect, the present invention utilises an established model system for assaying the effect of SSTR ligands on human angiogenesis. In one embodiment, the model system comprises the spontaneously transformed human umbilical vein endothelial cell line, ECV304, grown on a Matrigel substrate (Hughes, 1996, Experimental Cell Research 225:171-185). Matrigel is a solubilized basement membrane extract that promotes the differentiation of endothelial cells into capillary tube-like structures in vitro. It has been shown that cytoskeletal reorganization occurs when human umbilical vein endothelial cells undergo the morphological changes associated with neovascular tube formation on a Matrigel substrate (Grant et al., 1991, In Vitro Cell Dev. Biol. 27A(4):327-36.). […] This assay can also be used to identify […] ligands that stimulate the process of angiogenesis. […]
# ECV304 cells (3.5×10^4 in 0.5 mL complete M199 medium) were placed onto 24-well plates that were pre-coated with 0.125 mL of Matrigel (Becton-Dickinson). […] After 24 hours, images of tube-formation were recorded on film. Images were converted into a digital format using a Hewlett-Packard ScanJet 4C/T scanner, the summed length of capillary-like tubes was quantified using Optimas 6.1 image analysis software (Optimas Corp.).
# ECV304 cells [2] = experiment: Actin cytoskeleton visualised with fluorescently labelled phalloidin; conditions: 10 nM, 37° C. for 30 min
# Protocol: as §1
# [3] = test system: Na/H exchanger on ECV304 cells; experiment: Intracellular pH imaging of the Na/H exchanger
substance,measurement,setting,value
"des-AA^1,2,5 [DTrp^8,IAamp^9]SS [SSTR1 '499 agonist]",actin stress fibres,ECV304 or HUVEC cells,decrease in stress fibres
same,lamellipodia formation,ECV304 or HUVEC cells,increase in lamellipodia formation
"Somatostatin-14 (AGCKNFFWKTFTSC; ends and bridges not checked; cysteine pairing not given here; UniProt P61278 103-116, looked up) [SS14, native 14 amino acid form of somatostatin, an endogenous cyclic peptide; agonist of all somatostatin receptor subtypes]",inhibition of neovascular growth,ECV304 cells [1],significantly inhibit neovascular growth
same,actin stress fibres,ECV304 cells [2],loss of long stress fibers
same,lamellipodia at the plasma membrane,ECV304 cells [2],increase in the number and size of lamellipodia
same,effect on Na/H exchanger,[3],inhibit
